Experimental data: publication PMC3272148 (2011)

Legend:
dopamine1 (D1) receptor [1] = target: T1, dopamine1 (D1) receptor (Oryctolagus cuniculus, UniProt G1SML2); assay: [3H]SCH23390 saturation radioligand binding
5-HT2C receptor [2] = target: T2, 5-HT2C receptor (Oryctolagus cuniculus, UniProt G1TAG7); assay: [3H]mesulergine saturation radioligand binding
T2 sequence (G1TAG7 33-453): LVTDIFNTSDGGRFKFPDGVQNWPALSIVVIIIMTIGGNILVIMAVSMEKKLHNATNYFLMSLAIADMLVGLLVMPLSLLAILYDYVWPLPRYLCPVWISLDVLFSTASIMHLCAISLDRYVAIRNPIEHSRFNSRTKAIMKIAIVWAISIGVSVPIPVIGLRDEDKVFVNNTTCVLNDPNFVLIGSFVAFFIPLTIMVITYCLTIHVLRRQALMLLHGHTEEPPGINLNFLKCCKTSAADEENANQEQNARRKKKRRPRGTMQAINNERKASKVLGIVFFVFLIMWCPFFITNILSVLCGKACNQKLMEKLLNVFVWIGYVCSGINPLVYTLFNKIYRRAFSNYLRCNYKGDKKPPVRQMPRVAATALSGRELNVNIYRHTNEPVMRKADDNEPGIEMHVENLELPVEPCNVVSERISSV

5-HT2C receptor [3] = target: T2, 5-HT2C receptor; assay: [3H]mesulergine competition radioligand binding
[4] = target: serotonin2A (5-HT2A) receptor (Oryctolagus cuniculus, UniProt G1SYA7); assay: [3H]ketanserin saturation radioligand binding
serotonin2A (5-HT2A) receptor, sequence (G1SYA7 1-469): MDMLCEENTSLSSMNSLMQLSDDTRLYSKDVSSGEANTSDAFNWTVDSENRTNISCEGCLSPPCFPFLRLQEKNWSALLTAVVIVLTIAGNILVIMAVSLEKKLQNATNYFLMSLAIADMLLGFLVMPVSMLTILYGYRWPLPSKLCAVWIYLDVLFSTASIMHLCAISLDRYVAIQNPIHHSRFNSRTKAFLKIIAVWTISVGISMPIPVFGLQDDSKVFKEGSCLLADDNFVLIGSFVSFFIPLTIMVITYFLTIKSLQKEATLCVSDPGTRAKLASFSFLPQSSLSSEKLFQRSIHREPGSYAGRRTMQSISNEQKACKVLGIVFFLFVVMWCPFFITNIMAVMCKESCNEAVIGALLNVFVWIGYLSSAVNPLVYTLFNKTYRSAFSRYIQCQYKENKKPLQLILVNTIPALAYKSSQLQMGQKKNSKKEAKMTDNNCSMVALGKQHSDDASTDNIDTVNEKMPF

dopamine1 (D1) receptor [5] = target: T1, dopamine1 (D1) receptor; assay: [3H]SCH23390 competition radioligand binding

T1 sequence (G1SML2 1-448): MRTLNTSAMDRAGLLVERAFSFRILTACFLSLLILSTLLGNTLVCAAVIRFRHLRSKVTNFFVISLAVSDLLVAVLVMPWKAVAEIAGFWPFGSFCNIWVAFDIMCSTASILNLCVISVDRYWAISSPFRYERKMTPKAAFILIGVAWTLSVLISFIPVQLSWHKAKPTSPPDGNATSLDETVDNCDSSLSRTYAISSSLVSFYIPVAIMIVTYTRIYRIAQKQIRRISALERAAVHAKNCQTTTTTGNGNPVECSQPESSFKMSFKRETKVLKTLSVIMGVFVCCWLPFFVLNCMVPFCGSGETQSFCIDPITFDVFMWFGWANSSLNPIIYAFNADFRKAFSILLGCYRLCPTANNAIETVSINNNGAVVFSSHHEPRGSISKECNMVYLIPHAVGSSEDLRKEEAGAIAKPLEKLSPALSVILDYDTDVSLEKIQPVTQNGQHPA

CN1CCc2cc(Cl)c(O)cc2[C@@H](c2ccccc2)C1 [SCH23390]
[3H]SCH23390 saturation radioligand binding (Bmax) (dopamine1 (D1) receptor [1]): Dopamine1 receptor density was quantified using eight concentrations of the antagonist radioligand, [^3H]SCH23390

CN1C[C@@H](NS(=O)(=O)N(C)C)C[C@@H]2c3cccc4c3c(cn4C)C[C@H]21 [mesulergine]
[3H]mesulergine saturation radioligand binding (Bmax) (5-HT2C receptor [2]): Serotonin2C receptor density was quantified using eight concentrations of the antagonist radioligand, [^3H]mesulergine

COc1cc(CC(C)N)c(OC)cc1I (racemic) [DOI, (±)-1-(2,5-dimethoxy-4-iodophenyl)-2-aminopropane]
Ki (5-HT2C receptor [3]): 73.5 nM

O=C(c1ccc(F)cc1)C1CCN(CCn2c(=O)[nH]c3ccccc3c2=O)CC1 [ketanserin]
Kd [4]: 0.21 nM

CCN(CC)C(=O)[C@@H]1C=C2c3cccc4[nH]cc(c34)C[C@H]2N(C)C1 [LSD]
Ki (5-HT2C receptor [3]): 7.5 nM
Ki (dopamine1 (D1) receptor [5]): 161 nM
